Reference: patent US20260070945A1, “MACROCYCLIC IMMUNOMODULATORS” (Bristol-Myers Squibb Company, priority 2022, published 2026)
*1 amine or outer side, *2 acyl side, *3 side chain or, on linkers, in order; H or OH if unused. Where a SMILES comes first, the peptide text is derived from it. Bridges are numbered along the chain shown (N, C = ends). [ ]: non-standard residue; d: D form. The star is where a group is joined. ξ: configuration not given here. Trp(βS-Me) = C[C@@H](c1c[nH]c2ccccc12)[C@H](N)C(=O)O; Phe(3-CF3) = N[C@@H](Cc1cccc(C(F)(F)F)c1)C(=O)O; Phe(4-COOH) = N[C@@H](Cc1ccc(C(=O)O)cc1)C(=O)O; Phe(4-CH2NH2) = NCc1ccc(C[C@H](N)C(=O)O)cc1; Bip = N[C@@H](Cc1ccc(-c2ccccc2)cc1)C(=O)O; NH(CH2)14COOH = O=C(O)CCCCCCCCCCCCCCN*; Phe(3-Me) = Cc1cccc(C[C@H](N)C(=O)O)c1; γGlu = O=C(O)[C@H](CCC(=O)[*:2])N[*:1]; NH(CH2)8CO = O=C(CCCCCCCCN[*:1])[*:2]; NH(CH2)12COOH = O=C(O)CCCCCCCCCCCCN*; Val(3-OH) = CC(C)(O)[C@H](N)C(=O)O; 4Pal = N[C@@H](Cc1ccncc1)C(=O)O; Cha = N[C@@H](CC1CCCCC1)C(=O)O; Cit = NC(=O)NCCC[C@H](N)C(=O)O; Ile(3ξ) = CCC(C)[C@H](N)C(=O)O; Thr(3ξ) = CC(O)[C@H](N)C(=O)O; Carboxymethyl = O=C(O)C*; NMeA = CN[C@@H](C)C(=O)O; Orn = NCCC[C@H](N)C(=O)O; Aun = NCCCCCCCCCCC(=O)O; Dab = NCC[C@H](N)C(=O)O; AEEA = NCCOCCOCC(=O)O; Ac3c = NC1(C(=O)O)CC1; Piv = CC(C)(C)C(=O)*; Sar = CNCC(=O)O

The compounds below were run against T1, PD-1/PD-L1 interaction (PE-labeled human PD-L1-Ig binding to Jurkat cell line over-expressing human PD-1) (Homo sapiens, UniProt Q15116) (assay: Jurkat-PD-1 Cell Binding High-Content Screening Assay (CBA)). Conditions: Jurkat-hPD-1 cells, PE-labeled PD-L1-Ig 20 nM final; read-out: Jurkat HPD1 PDL1 IC50.
T1 construct: expressed in transfected cells; host or cells: Jurkat
In short: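 Read-out: high-content imaging of cell-bound PE fluorescence, with Hoechst 33342 nuclear counterstain after paraformaldehyde fixation. Before labeled ligand (20 nM final, 1 h) was added, compound sat on the cells for 2 h at 37 °C in DMEM/10% FCS.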

T1 sequence (Q15116 25-288): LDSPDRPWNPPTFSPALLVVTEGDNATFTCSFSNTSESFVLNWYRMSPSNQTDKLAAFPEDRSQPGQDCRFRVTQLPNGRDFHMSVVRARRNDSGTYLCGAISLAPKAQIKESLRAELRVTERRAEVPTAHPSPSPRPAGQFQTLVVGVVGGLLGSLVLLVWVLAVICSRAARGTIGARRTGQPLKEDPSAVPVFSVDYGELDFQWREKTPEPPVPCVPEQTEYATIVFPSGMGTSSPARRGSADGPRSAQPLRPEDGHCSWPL

IC50 [nM]	SMILES
12.2	Cc1cccc(C[C@@H]2NC(=O)[C@H](CC(=O)O)NC(=O)[C@H](Cc3ccc(OCC(=O)O)cc3)NC(=O)[C@H](C(C)O)NC(=O)CSC[C@@H](C(=O)N[C@H](CC(N)=O)C(=O)NCCCCCCCCCCC(=O)O)NC(=O)[C@H](C(C)O)NC(=O)[C@H](C(C)C)NC(=O)[C@H](CC3CCCCC3)NC(=O)[C@H](CCN)NC(=O)[C@@H](CC(C)C)NC(=O)[C@H](C)N(C)C(=O)[C@H](CCCCNC(=O)C(C)(C)C)NC(=O)[C@H](Cc3ccc(-c4ccccc4)cc3)NC(=O)[C@H](Cc3ccc(O)cc3)NC2=O)c1 (stereo partly drawn) [Example 2452] ({CH2CO}-[Thr(3ξ)]Y(Carboxymethyl)D[Phe(3-Me)]Y[Bip]K(Piv)[NMeA][dL][Dab][Cha]V[Thr(3ξ)]C[dN][Aun]-OH; thioether N-14)
777	CCC(C)[C@@H]1NC(=O)[C@H](Cc2ccc(-c3ccccc3)cc2)NC(=O)[C@H](CC(C)C)NC(=O)[C@H](Cc2c[nH]c3ccccc23)NC(=O)[C@H](CC(=O)O)NC(=O)[C@H](Cc2ccc(O)cc2)NC(=O)[C@H](Cc2ccncc2)NC(=O)CSC[C@@H](C(=O)N[C@H](CC(N)=O)C(=O)NCCOCCOCC(=O)N[C@@H](CCN)C(=O)NCCOCCOCC(=O)NCCCCCCCCCCC(=O)O)NC(=O)[C@H](CO)NC(=O)[C@H](C(C)C)NC(=O)[C@H](CC(C)C)NC(=O)[C@H](CC(N)=O)NC(=O)[C@@H](CC(C)C)NC(=O)[C@H](C)N(C)C1=O (stereo partly drawn) [Example 2061] ({CH2CO}-[4Pal]YDWL[Bip][Ile(3ξ)][NMeA][dL]NLVSC[dN][AEEA][Dab][AEEA][Aun]-OH; thioether N-14)
427	Cc1cccc(C[C@@H]2NC(=O)[C@H](CC(=O)O)NC(=O)[C@H](Cc3ccc(OCC(=O)O)cc3)NC(=O)[C@H](C(C)O)NC(=O)CSC[C@@H](C(=O)N(C)CC(=O)NCCCCCCCCCCC(=O)O)NC(=O)[C@H](CCC(N)=O)NC(=O)[C@H](C(C)C)NC(=O)[C@H](CC3CCCCC3)NC(=O)[C@H](CCN)NC(=O)[C@@H](CC(C)C)NC(=O)[C@H](C)N(C)C(=O)[C@H](C(C)C)NC(=O)[C@H](Cc3ccc(-c4ccccc4)cc3)NC(=O)[C@H](Cc3ccc(O)cc3)NC2=O)c1 (stereo partly drawn) [Example 2265] ({CH2CO}-[Thr(3ξ)]Y(Carboxymethyl)D[Phe(3-Me)]Y[Bip]V[NMeA][dL][Dab][Cha]VQC[Sar][Aun]-OH; thioether N-14)
7.8	CC(C)C[C@@H]1NC(=O)[C@H](Cc2c[nH]c3ccccc23)NC(=O)[C@H](CC(=O)O)NC(=O)[C@H](Cc2ccc(C(=O)O)cc2)NC(=O)[C@H](Cc2ccc(OCC(=O)O)cc2)NC(=O)CSC[C@@H](C(=O)NCC(=O)NCCOCCOCC(=O)N[C@@H](CCCN)C(=O)NCCCCCCCCCCC(=O)O)NC(=O)[C@H](CCCN)NC(=O)[C@H](C(C)C)NC(=O)[C@H](CC2CCCCC2)NC(=O)[C@H](CCN)NC(=O)[C@@H](CC(C)C)NC(=O)[C@H](C)N(C)C(=O)[C@H](C(C)C)NC(=O)[C@H](Cc2ccc(-c3ccccc3)cc2)NC1=O [Example 2162] ({CH2CO}-Y(Carboxymethyl)[Phe(4-COOH)]DWL[Bip]V[NMeA][dL][Dab][Cha]V[Orn]CG[AEEA][Orn][Aun]-OH; thioether N-14)
81.4	CC(C)C[C@H]1NC(=O)[C@H](C)N(C)C(=O)[C@H](Cc2ccc(C(=O)O)cc2)NC(=O)[C@H](Cc2ccc(-c3ccccc3)cc2)NC(=O)[C@H](Cc2ccc(C(=O)O)cc2)NC(=O)[C@H](Cc2cccc(C(F)(F)F)c2)NC(=O)[C@H](CC(=O)O)NC(=O)[C@H](Cc2ccc(OCC(=O)O)cc2)NC(=O)[C@H](Cc2ccc(C(=O)O)cc2)NC(=O)CSC[C@@H](C(=O)N[C@@H](CCN)C(=O)NCCOCCOCC(=O)N[C@@H](CCC(=O)NCCOCCOCC(=O)NCCCCCCCCCCCCC(=O)O)C(=O)O)NC(=O)[C@H](CO)NC(=O)[C@H](C(C)(C)O)NC(=O)[C@H](CC2CCCCC2)NC(=O)[C@H](CCN)NC1=O [Example 1161] ({CH2CO}-[Phe(4-COOH)]Y(Carboxymethyl)D[Phe(3-CF3)][Phe(4-COOH)][Bip][Phe(4-COOH)][NMeA][dL][Dab][Cha][Val(3-OH)]SC[Dab][AEEA][γGlu][AEEA]-{NH(CH2)12COOH}; thioether N-14)
26.9	Cc1cccc(C[C@@H]2NC(=O)[C@H](CC(=O)O)NC(=O)[C@H](Cc3ccc(OCC(=O)O)cc3)NC(=O)[C@H](CCCNC(=N)N)NC(=O)CSC[C@@H](C(=O)N[C@H](CC(N)=O)C(=O)NCCCCCCCCCCC(=O)O)NC(=O)[C@H](C(C)C)NC(=O)[C@H](C(C)C)NC(=O)[C@H](CC3CCCCC3)NC(=O)[C@H](CCN)NC(=O)[C@@H](CC(C)C)NC(=O)[C@H](C)N(C)C(=O)[C@H](Cc3ccc(OCC(=O)O)cc3)NC(=O)[C@H](Cc3ccc(-c4ccccc4)cc3)NC(=O)[C@H](Cc3ccc(OCC(=O)O)cc3)NC2=O)c1 [Example 2360] ({CH2CO}-RY(Carboxymethyl)D[Phe(3-Me)]Y(Carboxymethyl)[Bip]Y(Carboxymethyl)[NMeA][dL][Dab][Cha]VVC[dN][Aun]-OH; thioether N-14)
16.6	Cc1cccc(C[C@@H]2NC(=O)[C@H](CC(=O)O)NC(=O)[C@H](Cc3ccc(OCC(=O)O)cc3)NC(=O)[C@H](Cc3ccc(OCC(=O)O)cc3)NC(=O)CSC[C@@H](C(=O)NC3(C(=O)NCCOCCOCC(=O)NCCCCCCCCCCC(=O)O)CC3)NC(=O)[C@H](CCCNC(=N)N)NC(=O)[C@H](C(C)C)NC(=O)[C@H](CC3CCCCC3)NC(=O)[C@H](CCN)NC(=O)[C@@H](CC(C)C)NC(=O)[C@H](C)N(C)C(=O)[C@H](Cc3ccc(O)cc3)NC(=O)[C@H](Cc3ccc(-c4ccccc4)cc3)NC(=O)[C@H](Cc3ccc(O)cc3)NC2=O)c1 [Example 1253] ({CH2CO}-Y(Carboxymethyl)Y(Carboxymethyl)D[Phe(3-Me)]Y[Bip]Y[NMeA][dL][Dab][Cha]VRC[Ac3c][AEEA][Aun]-OH; thioether N-14)
43.4	CC[C@H](C)[C@@H]1NC(=O)[C@H](Cc2ccc(-c3ccccc3)cc2)NC(=O)[C@H](CC(C)C)NC(=O)[C@H](Cc2c[nH]c3ccccc23)NC(=O)[C@H](CC(=O)O)NC(=O)[C@H](Cc2ccc(C(=O)O)cc2)NC(=O)[C@H](Cc2ccc(OCC(=O)O)cc2)NC(=O)CSC[C@@H](C(=O)N[C@@H](CCCNC(=N)N)C(=O)NCCCCCCCCCCC(=O)O)NC(=O)[C@H](CO)NC(=O)[C@H](C(C)C)NC(=O)[C@H](CC2CCCCC2)NC(=O)[C@H](CCN)NC(=O)[C@@H](CC(C)C)NC(=O)[C@H](C)N(C)C1=O [Example 1074] ({CH2CO}-Y(Carboxymethyl)[Phe(4-COOH)]DWL[Bip]I[NMeA][dL][Dab][Cha]VSCR[Aun]-OH; thioether N-14)
39.1	CC(C)C[C@@H]1NC(=O)[C@H]([C@@H](C)c2c[nH]c3ccccc23)NC(=O)[C@H](CC(=O)O)NC(=O)[C@H](Cc2ccc(OCC(=O)O)cc2)NC(=O)[C@H](Cc2ccc(OCC(=O)O)cc2)NC(=O)CSC[C@@H](C(=O)NC2(C(=O)NCCOCCOCC(=O)NCCCCCCCCCCC(=O)O)CC2)NC(=O)[C@H](CCCNC(=N)N)NC(=O)[C@H](C(C)C)NC(=O)[C@H](CC2CCCCC2)NC(=O)[C@H](CCN)NC(=O)[C@@H](CC(C)C)NC(=O)[C@H](C)N(C)C(=O)[C@H](C(C)C)NC(=O)[C@H](Cc2ccc(-c3ccccc3)cc2)NC1=O [Example 1271] ({CH2CO}-Y(Carboxymethyl)Y(Carboxymethyl)D[Trp(βS-Me)]L[Bip]V[NMeA][dL][Dab][Cha]VRC[Ac3c][AEEA][Aun]-OH; thioether N-14)
20.7	Cc1cccc(C[C@@H]2NC(=O)[C@H](CC(=O)O)NC(=O)[C@H](Cc3ccc(OCC(=O)O)cc3)NC(=O)[C@H](C(C)O)NC(=O)CSC[C@@H](C(=O)N[C@@H](CCN)C(=O)NCCOCCOCC(=O)NCCOCCOCC(=O)NCCCCCCCCCCC(=O)O)NC(=O)[C@H](CCC(=O)O)NC(=O)[C@H](C(C)C)NC(=O)[C@H](CC3CCCCC3)NC(=O)[C@H](CCN)NC(=O)[C@@H](CC(C)C)NC(=O)[C@H](C)N(C)C(=O)[C@H](Cc3ccc(OCC(=O)O)cc3)NC(=O)[C@H](Cc3ccc(-c4ccccc4)cc3)NC(=O)[C@H](Cc3ccc(C(=O)O)cc3)NC2=O)c1 (stereo partly drawn) [Example 2482] ({CH2CO}-[Thr(3ξ)]Y(Carboxymethyl)D[Phe(3-Me)][Phe(4-COOH)][Bip]Y(Carboxymethyl)[NMeA][dL][Dab][Cha]VEC[Dab][AEEA][AEEA][Aun]-OH; thioether N-14)

Same assay, conditions: PE-labeled PD-L1-Ig 20 nM final, Jurkat-hPD-1 cells; read-out: Jurkat HPD1 PDL1 IC50

IC50 [nM]	SMILES
30.1	Cc1cccc(C[C@@H]2NC(=O)[C@H](CC(=O)O)NC(=O)[C@H](Cc3ccc(CN)cc3)NC(=O)[C@H]([C@@H](C)O)NC(=O)CSC[C@@H](C(=O)N[C@@H](CCN)C(=O)NCCCCCCCCC(=O)NCCCCCCCCCCC(=O)O)NC(=O)[C@H](CCCN)NC(=O)[C@H](C(C)C)NC(=O)[C@H](CC3CCCCC3)NC(=O)[C@H](CCN)NC(=O)[C@@H](CC(C)C)NC(=O)[C@H](C)N(C)C(=O)[C@H](Cc3ccc(CN)cc3)NC(=O)[C@H](Cc3ccc(-c4ccccc4)cc3)NC(=O)[C@H](Cc3ccc(CN)cc3)NC2=O)c1 [Example 2671] ({CH2CO}-T[Phe(4-CH2NH2)]D[Phe(3-Me)][Phe(4-CH2NH2)][Bip][Phe(4-CH2NH2)][NMeA][dL][Dab][Cha]V[Orn]C[Dab][NH(CH2)8CO][Aun]-OH; thioether N-14)
77	CC(=O)NCCCC[C@@H]1NC(=O)[C@H](C(C)(C)O)NC(=O)[C@H](CC2CCCCC2)NC(=O)[C@H](CCN)NC(=O)[C@@H](CC(C)C)NC(=O)[C@H](C)N(C)C(=O)[C@H](CCCNC(N)=O)NC(=O)[C@H](Cc2ccc(-c3ccccc3)cc2)NC(=O)[C@H](Cc2ccc(OCC(=O)O)cc2)NC(=O)[C@H](Cc2cccc(C(F)(F)F)c2)NC(=O)[C@H](CC(=O)O)NC(=O)[C@H](Cc2ccc(OCC(=O)O)cc2)NC(=O)[C@H](Cc2ccc(OCC(=O)O)cc2)NC(=O)CSC[C@@H](C(=O)N[C@@H](CCN)C(=O)NCCCCCCCCCCCCCCC(=O)O)NC1=O [Example 2624] ({CH2CO}-Y(Carboxymethyl)Y(Carboxymethyl)D[Phe(3-CF3)]Y(Carboxymethyl)[Bip][Cit][NMeA][dL][Dab][Cha][Val(3-OH)]K(Ac)C[Dab]-{NH(CH2)14COOH}; thioether N-14)
